Data published in patent US7101882B2, “Morpholin-acetamide derivatives for the treatment of inflammatory diseases” (Glaxo Group Limited, priority 2000, dated 2006).

Target: eosinophils
Test: Eosinophil chemotaxis assay (assay (b))
Format: cell-based, human
Method: (b) Eosinophil Chemotaxis Assay.
Compounds were evaluated for their inhibitory effect on eosinophil chemotaxis. Eosinophils were purified from human peripheral blood by standard CD16 cell depletion using a Miltenyi cell separation column and a magnetic Super Macs magnet as previously described (Motegi & Kita, 1998; J. Immunology. 161:4340-6). Cells were re-suspended in RPMI 1640/10% FCS solution and incubated with calcein-AM (Molecular Probes) at 37° C. for 30 mins. Following incubation, the eosinophils were centrifuged at 400 g for 5 min and re-suspended in RPMI/FCS at 2.2 million/ml. Cells were then incubated in the presence of increasing concentration of compounds (1 pM to 30 μM) at 37° C. for 30 mins. For control responses cells were incubated with RPMI/FCS only. The agonist eotaxin (either a concentration response curve or for the functional inhibition curves an EC80 concentration) was added to the lower chamber of a 96 well chemotaxis plate (5 μm filter: Receptor Technologies). […] Cells remaining on top of the chemotaxis filter were removed and the number of eosinophils which had migrated were quantified by reading the plate on a fluorescent plate reader. Inhibition curves for the effect of compounds on eosinophil chemotaxis were analysed by fitting the data with a four parameter logistic equation. […]

Compound: NS(=O)(=O)c1cccc(CC(=O)NC[C@H]2CN(Cc3ccc(Cl)c(Cl)c3)CCO2)c1 [Example 162, 2-[3-(Aminosulfonyl)phenyl]-N-{[(2S)-4-(3,4-dichlorobenzyl)morpholin-2-yl]methyl}acetamide]
- CCR-3 Eosinophil Chemotaxis Assay (fpKi): 8.2
